This test has as its target EGFR (human) (UniProt P00533).

Molecules are shown by their SMILES.

By IC50 is commonly meant the concentration needed to halve the response being measured. Low readings indicate greater potency in that assay, high ones weaker potency in that assay.

EGFR (human), sequence (P00533 whole entry, looked up): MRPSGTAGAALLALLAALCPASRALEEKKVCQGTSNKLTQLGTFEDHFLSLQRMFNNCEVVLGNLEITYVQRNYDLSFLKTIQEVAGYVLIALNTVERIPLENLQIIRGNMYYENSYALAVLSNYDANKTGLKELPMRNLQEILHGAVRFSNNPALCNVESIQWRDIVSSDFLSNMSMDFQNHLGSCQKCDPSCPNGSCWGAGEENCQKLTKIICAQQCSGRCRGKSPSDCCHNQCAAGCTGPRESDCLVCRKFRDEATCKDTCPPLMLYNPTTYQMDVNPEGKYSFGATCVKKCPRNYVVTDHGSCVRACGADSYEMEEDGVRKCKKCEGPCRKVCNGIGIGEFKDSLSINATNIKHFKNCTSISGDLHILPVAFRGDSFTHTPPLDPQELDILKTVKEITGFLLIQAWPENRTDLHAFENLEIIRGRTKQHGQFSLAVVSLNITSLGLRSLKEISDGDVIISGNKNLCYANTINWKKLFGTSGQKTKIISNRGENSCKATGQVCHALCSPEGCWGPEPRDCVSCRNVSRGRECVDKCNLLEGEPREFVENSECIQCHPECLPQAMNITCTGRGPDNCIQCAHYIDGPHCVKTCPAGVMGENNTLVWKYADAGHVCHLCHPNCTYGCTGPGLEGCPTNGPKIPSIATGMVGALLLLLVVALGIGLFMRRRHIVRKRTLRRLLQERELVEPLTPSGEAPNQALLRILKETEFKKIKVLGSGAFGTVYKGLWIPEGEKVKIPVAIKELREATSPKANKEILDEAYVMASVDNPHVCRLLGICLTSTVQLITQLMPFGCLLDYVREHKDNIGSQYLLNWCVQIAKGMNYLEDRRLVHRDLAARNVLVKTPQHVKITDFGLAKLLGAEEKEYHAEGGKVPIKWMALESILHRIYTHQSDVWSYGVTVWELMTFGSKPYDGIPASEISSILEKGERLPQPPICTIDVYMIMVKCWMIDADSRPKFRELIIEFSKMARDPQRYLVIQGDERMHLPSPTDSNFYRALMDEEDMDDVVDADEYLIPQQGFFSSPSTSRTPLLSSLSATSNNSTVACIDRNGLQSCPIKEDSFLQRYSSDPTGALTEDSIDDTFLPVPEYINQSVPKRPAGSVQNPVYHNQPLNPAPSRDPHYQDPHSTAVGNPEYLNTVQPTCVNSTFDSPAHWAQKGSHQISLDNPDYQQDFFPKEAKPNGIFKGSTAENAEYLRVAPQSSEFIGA

Take `CN1CCC(c2nc(-c3cccc(NC(=O)c4c(F)cccc4F)c3)c(-c3ccnc(Nc4ccc5c(c4)CN(C)CC5)n3)s2)CC1`: the IC50 is below 100 nM.
The same measure for `CN(C)CCCNc1ccc(Nc2nccc(-c3sc(N)nc3-c3cccc(NC(=O)c4cccn4C)c3)n2)cc1F`: below 100 nM.
The value for `Cc1nc(-c2cccc(NC(=O)c3c(F)cccc3F)c2)c(-c2ccnc(Nc3ccc(OCCN4CCCC4)c(Cl)c3)n2)s1` was below 100 nM; that for `COCCNc1nc(-c2cccc(NC(=O)c3cc(F)ccc3F)c2)c(-c2ccnc(Nc3ccc(OC)c(F)c3)n2)s1` was below 100 nM; that for `Nc1nc(-c2cccc(NC(=O)c3c(F)cccc3F)c2)c(-c2ccnc(Nc3cccc(-c4cnco4)c3)n2)s1` was below 100 nM.
The value for `Nc1nc(-c2cccc(NC(=O)C3CCCCC3)c2)c(-c2ccnc(Nc3cccc(-c4cnco4)c3)n2)s1` was below 100 nM; that for `Cc1nc(-c2cccc(NC(=O)c3c(F)cccc3F)c2)c(-c2ccnc(Nc3cccc(OCCN(C)C)c3)n2)s1` was below 100 nM; that for `CN(C)CCOc1cccc(Nc2nccc(-c3sc(N)nc3-c3cccc(C(=O)Nc4c(F)cccc4F)c3)n2)c1` was below 100 nM.
With `CCc1nc(-c2cccc(NC(=O)c3c(F)cccc3F)c2)c(-c2ccnc(Nc3ccc(OCCN4CCCC4)c(Cl)c3)n2)s1`, the concentration for half-maximal inhibition (IC50) is below 100 nM.
For the compound `CS(=O)(=O)Cc1ccc(Nc2nccc(-c3scnc3-c3cccc(NC(=O)c4c(F)cccc4F)c3)n2)cc1`, the half-maximal inhibitory concentration (IC50) was below 100 nM.
The same measure for `O=C(Cc1cccs1)Nc1cccc(-c2ncsc2-c2ccnc(Nc3ccc4c(c3)NC(=O)CO4)n2)c1`: below 100 nM.
The compound `O=C(Nc1cccc(-c2nc(NCCCN3CCOCC3)sc2-c2ccnc(Nc3cccc(CN4CCCC4)c3)n2)c1)c1c(F)cccc1F` had an IC50 below 100 nM.
The same measure for `CN(C)CCOc1ccc(Nc2nccc(-c3sc(N)nc3-c3cccc(OCc4ccccc4)c3)n2)cc1Cl`: below 100 nM; for `CN(C)CCOc1ccc(Nc2nccc(-c3sc(N)nc3-c3ccc(F)c(NC(=O)c4c(F)cccc4F)c3)n2)cc1Cl`: below 100 nM.
The value for `Nc1nc(-c2cccc(NC(=O)c3c(F)cccc3F)c2)c(-c2ccnc(Nc3ccc4c(c3)OCC(=O)N4)n2)s1` was below 100 nM; that for `CN(C)CCOc1ccc(Nc2nccc(-c3sc(N(C)C)nc3-c3cccc(NC(=O)c4c(F)cccc4F)c3)n2)cc1` was below 100 nM.
On to `CC(=O)N1CCC(Oc2ccc(Nc3nccc(-c4sc(C)nc4-c4cccc(NC(=O)c5c(F)cccc5F)c4)n3)cc2F)CC1`, for which the IC50 is below 100 nM.
`CN(C)CCOc1cccc(Nc2nccc(-c3scnc3-c3cccc(NC(=O)c4c(F)cccc4F)c3)n2)c1` registered an IC50 below 100 nM.
For the compound `Cc1nc(-c2cccc(NC(=O)c3cccc(C(F)(F)F)c3)c2)c(-c2ccnc(Nc3ccc4c(c3)CN(C)CC4)n2)s1`, the concentration for half-maximal inhibition (IC50) is below 100 nM.
`CCNc1nc(-c2cccc(NC(=O)C3CC3)c2)c(-c2ccnc(Nc3ccc(OCCN4CCCC4)c(Cl)c3)n2)s1` had an IC50 below 100 nM.
The same measure for `CN(C)CCOc1ccc(Nc2nccc(-c3sc(NS(=O)(=O)CC(F)(F)F)nc3-c3cccc(NC(=O)c4c(F)cccc4F)c3)n2)cc1`: below 100 nM.
The value for `CN1CCN(c2nc(-c3cccc(NC(=O)c4c(F)cccc4F)c3)c(-c3ccnc(Nc4cccc(CN5CCCC5)c4)n3)s2)CC1` was below 100 nM; that for `CN(C)CCOc1ccc(Nc2nccc(-c3sc(-c4ccc(O)cc4)nc3-c3cccc(NC(=O)c4c(F)cccc4F)c3)n2)cc1Cl` was below 100 nM.
As to `Nc1nc(-c2cccc(NC(=O)c3cc(F)ccc3F)c2)c(-c2ccnc(Nc3ccc4c(c3)CNCC4)n2)s1`, the IC50 was below 100 nM.
The same measure for `CN1CCc2ccc(Nc3nccc(-c4sc(C5CCNCC5)nc4-c4cccc(NC(=O)c5c(F)cccc5F)c4)n3)cc2C1`: below 100 nM.
In the case of `Nc1nc(-c2cccc(NC(=O)Cc3cccs3)c2)c(-c2ccnc(Nc3cccc(F)c3)n2)s1`, the half-maximal inhibitory concentration (IC50) is below 100 nM.
The same measure for `COCCNc1nc(-c2cccc(NC(=O)c3c(F)cccc3F)c2)c(-c2ccnc(Nc3ccc(OCCN4CCCC4)c(Cl)c3)n2)s1`: below 100 nM; for `CCc1nc(-c2cccc(NC(=O)c3c(F)cccc3F)c2)c(-c2ccnc(Nc3ccc(OCCN(C)C)c(Cl)c3)n2)s1`: below 100 nM.
As for `CN(C)CCOc1ccc(Nc2nccc(-c3sc(N)nc3-c3cccc(NC(=O)c4c(F)cccc4F)c3)n2)cc1Cl`, the concentration for half-maximal inhibition (IC50) is below 100 nM.
The compound `COc1ccc(Nc2nccc(-c3sc(N)nc3-c3cccc(NC(=O)c4c(F)cccc4F)c3)n2)cc1OCCN(C)C` yielded an IC50 below 100 nM.
The same measure for `CN(C)Cc1cccc(Nc2nccc(-c3scnc3-c3cccc(NC(=O)c4c(F)cccc4F)c3)n2)c1`: below 100 nM; for `Cc1nc(-c2cccc(NC(=O)c3c(F)cccc3F)c2)c(-c2ccnc(Nc3ccc(OC4CCN(C)CC4)c(F)c3)n2)s1`: below 100 nM; for `Nc1nc(-c2cccc(OCc3ccccc3)c2)c(-c2ccnc(Nc3cccc(-c4cnco4)c3)n2)s1`: below 100 nM.
The value for `Cc1cc(-c2sc(N)nc2-c2cccc(NC(=O)c3c(F)cccc3F)c2)nc(Nc2cccc(OCCN(C)C)c2)n1` was below 100 nM.
The same measure for `Cc1nc(-c2cccc(NC(=O)c3c(F)cccc3F)c2)c(-c2ccnc(Nc3ccc(OC4CCN(C(C)C)CC4)c(F)c3)n2)s1`: below 100 nM; for `CN(C)CCOc1ccc(Nc2nccc(-c3sc(N)nc3-c3cccc(NC(=O)C4CCCCC4)c3)n2)cc1Cl`: below 100 nM.
The compound `Nc1nc(-c2cccc(OCc3ccccc3)c2)c(-c2ccnc(Nc3ccc4c(c3)CNCC4)n2)s1` displayed an IC50 below 100 nM.
The same measure for `CC(C)c1nc(-c2cccc(NC(=O)c3c(F)cccc3F)c2)c(-c2ccnc(Nc3cccc(OCCN(C)C)c3)n2)s1`: below 100 nM.
`Cc1cc(Nc2nccc(-c3sc(N(C)C)nc3-c3cccc(NC(=O)c4c(F)cccc4F)c3)n2)ccc1CC1CCNCC1` showed an IC50 below 100 nM.
The same measure for `CN(C)CCOc1cccc(Nc2nccc(-c3scnc3-c3cccc(NC(=O)Cc4cccs4)c3)n2)c1`: below 100 nM.
The same measure for `CCc1nc(-c2cccc(NC(=O)c3c(F)cccc3F)c2)c(-c2ccnc(Nc3ccc(OCCN4CCCC4)c(F)c3)n2)s1`: below 100 nM.
In turn, `CCN(CC)CCOc1cccc(Nc2nccc(-c3sc(N)nc3-c3cccc(NC(=O)c4c(F)cccc4F)c3)n2)c1` showed a half-inhibitory concentration (IC50) below 100 nM.
The value for `COc1cccc(C(=O)Nc2cccc(-c3nc(C)sc3-c3ccnc(Nc4ccc5c(c4)CN(C)CC5)n3)c2)c1` was below 100 nM; that for `CC(C)c1nc(-c2cccc(NC(=O)c3c(F)cccc3F)c2)c(-c2ccnc(Nc3ccc(OCCN4CCCC4)c(Cl)c3)n2)s1` was below 100 nM.
The same measure for `Nc1nc(-c2cccc(NC(=O)c3c(F)cccc3F)c2)c(-c2ccnc(Nc3ccc4c(c3)CNCC4)n2)s1`: below 100 nM; for `Nc1nc(-c2cccc(C(=O)Nc3c(F)cccc3F)c2)c(-c2ccnc(Nc3cccc(CN4CCCC4)c3)n2)s1`: below 100 nM; for `CN1CCc2ccc(Nc3nccc(-c4sc(N)nc4-c4cccc(NC(=O)c5c(F)cccc5F)c4)n3)cc2C1`: below 100 nM.
As to `CN(C)CCCNc1ccc(Nc2nccc(-c3sc(N)nc3-c3cccc(NC(=O)C4CCCCC4)c3)n2)cc1F`, the IC50 was below 100 nM.
In turn, `O=C1COc2ccc(Nc3nccc(-c4scnc4-c4cccc(NC(=O)c5cc(F)ccc5F)c4)n3)cc2N1` gave an IC50 below 100 nM.
The value for `CCc1nc(-c2cccc(NC(=O)c3c(F)cccc3F)c2)c(-c2ccnc(Nc3cccc(CN4CCCC4)c3)n2)s1` was below 100 nM.
The value for `CCc1nc(-c2cccc(NC(=O)c3c(F)cccc3F)c2)c(-c2ccnc(Nc3ccc(OCCN(C)C)c(F)c3)n2)s1` was below 100 nM; that for `CN(C)c1nc(-c2cccc(NC(=O)c3c(F)cccc3F)c2)c(-c2ccnc(Nc3ccc(OCCN4CCCC4)nc3)n2)s1` was below 100 nM.
The value for `CCNc1nc(-c2cccc(NC(=O)c3c(F)cccc3F)c2)c(-c2ccnc(Nc3ccc(OCCN(C)C)c(Cl)c3)n2)s1` was below 100 nM; that for `CN(C)CCOc1ccc(Nc2nccc(-c3sc(N)nc3-c3cc(NC(=O)c4c(F)cccc4F)ccc3F)n2)cc1Cl` was below 100 nM; that for `CN(C)CCOc1ccc(Nc2nccc(-c3sc(N)nc3-c3cccc(C(=O)Nc4c(F)cccc4F)c3)n2)cc1Cl` was below 100 nM.
Take `CN(C)CCCNc1ccc(Nc2nccc(-c3sc(N)nc3-c3cccc(NC(=O)c4cc(F)ccc4F)c3)n2)cc1F`: the IC50 was below 100 nM.
Regarding `CN(C)CCOc1cccc(Nc2nccc(-c3sc(N)nc3-c3cccc(NC(=O)c4c(F)cccc4F)c3)n2)c1`, the 50% inhibitory concentration (IC50) was below 100 nM.
With `CCNc1nc(-c2cccc(NC(=O)c3c(F)cccc3F)c2)c(-c2ccnc(Nc3ccc(CCN4CCCC4)c(F)c3)n2)s1`, the 50% inhibitory concentration (IC50) was below 100 nM.
The same measure for `Cc1nc(-c2cccc(NC(=O)c3ccc(F)cc3)c2)c(-c2ccnc(Nc3ccc(OCCN(C)C)c(Cl)c3)n2)s1`: below 100 nM; for `CN1CCc2ccc(Nc3nccc(-c4sc(NCCCN5CCOCC5)nc4-c4cccc(NC(=O)c5c(F)cccc5F)c4)n3)cc2C1`: below 100 nM; for `O=C1COc2cc(Nc3nccc(-c4scnc4-c4cccc(NC(=O)c5cc(F)ccc5F)c4)n3)ccc2N1`: below 100 nM.
The compound `COc1ccccc1C(=O)Nc1cccc(-c2nc(C)sc2-c2ccnc(Nc3ccc4c(c3)CN(C)CC4)n2)c1` showed a half-inhibitory concentration (IC50) below 100 nM.
Compound `Cc1cccc(C(=O)Nc2cccc(-c3nc(C)sc3-c3ccnc(Nc4ccc(OCCN(C)C)c(Cl)c4)n3)c2)c1` returned an IC50 below 100 nM.
The compound `COCCOc1ccc(Nc2nccc(-c3sc(N)nc3-c3cccc(NC(=O)c4cc(F)ccc4F)c3)n2)cc1F` registered an IC50 below 100 nM.
The value for `CN(C)CCOc1ccc(Nc2nccc(-c3sc(-c4ccc(O)cc4)nc3-c3cccc(NC(=O)c4cc(F)ccc4F)c3)n2)cc1Cl` was below 100 nM; that for `COc1ccc(Nc2nccc(-c3sc(NC4CC4)nc3-c3cccc(NC(=O)c4c(F)cccc4F)c3)n2)cc1OCCN(C)C` was below 100 nM; that for `COc1ccc(Nc2nccc(-c3sc(N)nc3-c3cccc(NC(=O)c4c(F)cccc4F)c3)n2)cc1F` was below 100 nM.
The same measure for `Cc1nc(-c2cccc(NC(=O)c3c(F)cccc3F)c2)c(-c2ccnc(Nc3cccc(F)c3)n2)s1`: below 100 nM; for `COc1ccc(Nc2nccc(-c3scnc3-c3cccc(NC(=O)c4c(F)cccc4F)c3)n2)cc1N1CCN(C)CC1`: below 100 nM; for `CN(C)CCOc1ccc(Nc2nccc(-c3sc(N(C)C)nc3-c3cccc(NC(=O)c4c(F)cccc4F)c3)n2)cc1Cl`: below 100 nM.

For the origin of these results see the Kinase Knowledgebase extract (Sharma et al. 2016).
